Experiments:
[1] = target: T1, ATP-dependent translocase ABCB1 (Homo sapiens, UniProt P08183); assay: TP_TRANSPORTER: increase in Doxorubicin intracellular accumulation (Doxorubicin: […]) in K562/R10 cells; assay type: functional, cell-based
[2] = target: T1, ATP-dependent translocase ABCB1; assay: TP_TRANSPORTER: drug resistance (vinblastine) in K562/R10 cells; assay type: functional, cell-based

T1 sequence (P08183 whole entry): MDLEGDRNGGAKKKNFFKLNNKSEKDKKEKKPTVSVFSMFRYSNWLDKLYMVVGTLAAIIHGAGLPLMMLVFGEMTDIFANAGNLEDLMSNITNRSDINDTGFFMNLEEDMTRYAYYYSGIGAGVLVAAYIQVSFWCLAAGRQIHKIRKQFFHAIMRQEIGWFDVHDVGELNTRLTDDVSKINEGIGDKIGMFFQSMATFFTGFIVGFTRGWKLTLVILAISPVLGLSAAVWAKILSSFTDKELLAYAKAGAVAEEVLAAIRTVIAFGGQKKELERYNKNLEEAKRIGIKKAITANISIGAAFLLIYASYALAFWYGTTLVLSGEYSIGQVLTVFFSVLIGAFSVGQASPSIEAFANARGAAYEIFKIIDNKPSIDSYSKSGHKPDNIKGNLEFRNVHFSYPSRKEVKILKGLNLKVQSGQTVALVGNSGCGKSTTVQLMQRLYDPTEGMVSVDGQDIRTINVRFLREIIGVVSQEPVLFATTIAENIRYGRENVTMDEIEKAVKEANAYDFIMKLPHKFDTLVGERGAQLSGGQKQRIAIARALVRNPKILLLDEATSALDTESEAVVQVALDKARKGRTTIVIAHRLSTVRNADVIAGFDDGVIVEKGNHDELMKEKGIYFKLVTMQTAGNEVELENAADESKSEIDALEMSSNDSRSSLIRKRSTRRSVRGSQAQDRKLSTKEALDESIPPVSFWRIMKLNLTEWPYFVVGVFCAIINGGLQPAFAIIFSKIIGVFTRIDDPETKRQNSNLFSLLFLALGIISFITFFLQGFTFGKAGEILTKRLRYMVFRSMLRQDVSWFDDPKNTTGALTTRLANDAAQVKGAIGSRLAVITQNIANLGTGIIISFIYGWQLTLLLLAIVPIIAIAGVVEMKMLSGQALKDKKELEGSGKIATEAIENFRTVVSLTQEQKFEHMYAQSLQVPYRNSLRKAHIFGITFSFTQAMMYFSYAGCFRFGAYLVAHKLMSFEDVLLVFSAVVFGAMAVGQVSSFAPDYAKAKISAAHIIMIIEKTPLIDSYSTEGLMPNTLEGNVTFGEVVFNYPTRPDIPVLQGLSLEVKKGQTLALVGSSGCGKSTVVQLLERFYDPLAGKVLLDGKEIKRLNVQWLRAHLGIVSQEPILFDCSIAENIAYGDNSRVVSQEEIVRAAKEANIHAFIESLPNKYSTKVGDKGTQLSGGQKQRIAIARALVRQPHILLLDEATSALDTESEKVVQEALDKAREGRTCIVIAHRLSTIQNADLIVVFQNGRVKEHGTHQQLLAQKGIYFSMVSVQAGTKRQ

Activity [1]: inhibitor [+]
Activity [2]: inhibitor [+]
SMILES: C=CCSCC=C [DIALLYL SULFIDE]

Source: ChEMBL document CHEMBL2074024, “Reversal of P-glycoprotein-mediated multidrug resistance by diallyl sulfide in K562 leukemic cells and in mouse liver” (Carcinogenesis, 2004)
